What was measured:
[1] = tested on: full length SMN2 minigene mRNA containing SMN2 exon 7 (SMN2-A minigene); experiment: SMN2 minigene mRNA splicing RT-qPCR assay in cultured cells; format: cell-based, human; conditions: Homo sapiens, HEK293-H; HEK293H cells stably transfected with SMN2-A minigene, 24 hours, 7-point concentration curve; concentration giving 1.5-fold SMN2 full length mRNA vs vehicle; read-out: EC1.5x for production of full length SMN2 mRNA
Procedure: SMN2 Minigene mRNA Splicing RT-qPCR Assay in Cultured Cells
The reverse transcription-quantitative PCR-based (RT-qPCR) assay is used to quantify the level of the full length SMN2 minigene mRNA containing SMN2 exon 7 in a HEK293H cell line stably transfected with said minigene and treated with a test compound.
Protocol. HEK293H cells stably transfected with the SMN2-A minigene construct described above (10,000 cells/well) are seeded in 200 μL of cell culture medium (DMEM plus 10% FBS, with 200 μg/mL hygromycin) in 96-well flat-bottom plates and the plate is immediately swirled to ensure proper dispersal of cells, forming an even monolayer of cells. Cells are allowed to attach for at least 4-6 hours. Test compounds are serially diluted 3.16-fold in 100% DMSO to generate a 7-point concentration curve. A solution of test compound (1 μL, 200× in DMSO) is added to each cell-containing well and the plate is incubated for 24 hours in a cell culture incubator (37° C., 5% CO2, 100% relative humidity). Two replicates are prepared for each test compound concentration. The cells are then lysed in Cells-To-Ct lysis buffer and the lysate is stored at −80° C.
Primer SMN Forward A (SEQ ID NO. 1) hybridizes to a nucleotide sequence in exon 7 (nucleotide 22 to nucleotide 40), primer SMN Reverse A (SEQ ID NO. 2) hybridizes to a nucleotide sequence in the coding sequence of Firefly luciferase, SMN Probe A (SEQ ID NO. 3) hybridizes to a nucleotide sequence in exon 7 (nucleotide 50 to nucleotide 54) and exon 8 (nucleotide 1 to nucleotide 21). The combination of these three oligonucleotides detects only SMN1 or SMN2 minigenes (RT-qPCR) and will not detect endogenous SMN1 or SMN2 genes.
The SMN forward and reverse primers are used at final concentrations of 0.4 μM. The SMN probe is used at a final concentration of 0.15 μM. The GAPDH primers are used at final concentrations of 0.2 μM and the probe at 0.15 μM.
The SMN2-minigene GAPDH mix (15 μL total volume) is prepared by combining 7.5 μL of 2×RT-PCR buffer, 0.4 μL of 25×RT-PCR enzyme mix, 0.75 μL of 20×GAPDH primer-probe mix, 4.0075 μL of water, 2 μL of 10-fold diluted cell lysate, 0.06 μL of 100 μM SMN forward primer, 0.06 μL of 100 μM SMN reverse primer, and 0.225 μL of 100 μM SMN probe.
PCR is carried out at the following temperatures for the indicated time: Step 1: 48° C. (15 min); Step 2: 95° C. (10 min); Step 3: 95° C. (15 sec); Step 4: 60° C. (1 min); then repeat Steps 3 and 4 for a total of 40 cycles.
Each reaction mixture contains both SMN2-A minigene and GAPDH primers/probe sets (multiplex design), allowing simultaneous measurement of the levels of two transcripts.
Two SMN spliced products are generated from the SMN2 minigene. The first spliced product containing exon 7, corresponding to SMN2 full length mRNA, is referred to herein using the term “SMN2 minigene FL.” The second spliced product lacking exon 7 is referred to herein using the term “SMN2 minigene Δ7.”
The increase of SMN2 minigene FL mRNA relative to that in cells treated with vehicle control is determined from real-time PCR data using a modified ΔΔCt method (as described in Livak and Schmittgen, Methods, 2001, 25:402-8). The amplification efficiency (E) is calculated from the slope of the amplification curve for SMN2 minigene FL and GAPDH mRNA individually. The abundance of SMN2 minigene FL and GAPDH mRNA are then calculated as (1+E)^−Ct, where Ct is the threshold value for each amplicon. The abundance of SMN2 minigene FL is normalized to GAPDH abundance. The normalized SMN2 minigene FL abundance from test compound-treated samples is then divided by normalized SMN2 minigene FL abundance from vehicle-treated cells to determine the level of SMN2 FL mRNA relative to vehicle control. […]

Smn protein = Smn protein assay (Smn HTRF) in cultured cells; format: cell-based, human; conditions: Homo sapiens, Fibroblast, GM03813 SMA Type 1 patient fibroblasts, 48 hours, HTRF; for maximal fold induction: 7-point concentration data, relative to vehicle, read-out: maximum fold (Fold) increase of Smn protein; for EC (1.5-fold): concentration producing 1.5 times Smn protein vs DMSO vehicle, read-out: EC1.5x for Smn protein expression
Procedure: Smn Protein Assay in Cultured Cells
The Smn HTRF (homogeneous time resolved fluorescence) assay is used to quantify the level of Smn protein in SMA patient fibroblast cells treated with test compounds.
Protocol. Cells are thawed and cultured in DMEM-10% FBS for 72 hours. Cells are trypsinized, counted and re-suspended to a concentration of 25,000 cells/mL in DMEM-10% FBS. The cell suspension is plated at 5,000 cells per well in a 96 well microtiter plate and incubated for 3 to 5 hours. […] Test compounds are serially diluted 3.16-fold in 100% DMSO to generate a 7-point concentration curve. 1 μL of test compound solution is transferred to cell-containing wells and cells are incubated for 48 hours in a cell culture incubator (37° C., 5% CO2, 100% relateive humidity). Triplicate samples are set up for each test compound concentration. After 48 hours, the supernatant is removed from the wells and 25 μL of the RIPA lysis buffer, containing protease inhibitors, is added to the wells and incubated with shaking at room temperature for 1 hour. 25 μL of the diluent is added and then 35 μL of the resulting lysate is transferred to a 384-well plate, where each well contains 5 μL of the antibody solution (1:100 dilution of anti-SMN d2 and anti-SMN kryptate in SMN reconstitution buffer). The plate is centrifuged for 1 minute to bring the solution to the bottom of the wells, then incubated overnight at room temperature. Fluorescence for each well of the plate at 665 nm and 620 nm is measured on an EnVision multilabel plate reader (Perkin-Elmer).
The normalized fluorescence signal is calculated for each sample, Blank and vehicle control well by dividing the signal at 665 nm by the signal at 620 nm. Normalizing the signal accounts for possible fluorescence quenching due to the matrix effect of the lysate. The AF value (a measurement of Smn protein abundance as a percent value) for each sample well is calculated by subtracting the normalized average fluorescence for the Blank control wells from the normalized fluorescence for each sample well, then dividing this difference by the normalized average fluorescence for the Blank control wells and multiplying the resulting value by 100. The ΔF value for each sample well represents the Smn protein abundance from test compound-treated samples. The ΔF value for each sample well is divided by the ΔF value for the vehicle control wells to calculate the fold increase in Smn protein abundance relative to the vehicle control.
For compounds of Formula (I) or a form thereof disclosed herein, Table 9 provides the EC1.5x for Smn protein expression that was obtained from the 7-point concentration data generated for each test compound according to the procedure of Biological Example 7. The term “EC1.5x for Smn protein expression” is defined as that concentration of test compound that is effective in producing 1.5 times the amount of Smn protein in an SMA patient fibroblast cell compared to the amount produced from the DMSO vehicle control. An EC1.5x for Smn protein expression between >3 μM and ≦10 μM is indicated by one star (*), an EC1.5x between >1 μM and ≦3 μM is indicated by two stars (**), an EC1.5x between >0.3 μM and ≦1 μM is indicated by three stars (***) and an EC1.5x≦0.3 μM is indicated by four stars (****).
For compounds of Formula (I) or a form thereof disclosed herein, Table 10 provides the maximum fold (Fold) increase of Smn protein that was obtained from the 7-point concentration data generated for each test compound according to the procedure of Biological Example 7. A maximum fold increase ≦1.2 is indicated by one star (*), a fold increase between >1.2 and ≦1.35 is indicated by two stars (**), a fold increase between >1.35 and ≦1.5 is indicated by three stars (***), a fold increase between >1.5 and ≦1.65 is indicated by four stars (****) and a fold increase >1.65 is indicated by five stars (*****).

| SMILES | EC (1.5-fold) [1] [µM] | maximal fold induction (Smn protein) | melting point [°C] | EC (1.5-fold) (Smn protein) [µM] |
| --- | --- | --- | --- | --- |
| O=c1cc(-c2cccnc2)oc2ccc(N3CCNCC3)cc12 [Cpd 1, 6-(piperazin-1-yl)-2-(pyridin-3-yl)-4H-chromen-4-one] | 0.3 to 1 | 1.35 to 1.5 | 177 to 180 | – |
| CN1CCN(c2ccc3oc(-c4cccnc4)cc(=O)c3c2)CC1 [Cpd 2, 6-(4-methylpiperazin-1-yl)-2-(pyridin-3-yl)-4H-chromen-4-one] | 3 to 30 | 1.2 to 1.35 | – | – |
| CCN1CCN(c2ccc3oc(-c4cccnc4)cc(=O)c3c2)CC1 [Cpd 3, 6-(4-ethylpiperazin-1-yl)-2-(pyridin-3-yl)-4H-chromen-4-one] | 3 to 30 | ≤ 1.2 | 140 to 142 | – |
| CC(C)N1CCN(c2ccc3oc(-c4cccnc4)cc(=O)c3c2)CC1 [Cpd 4, 6-[4-(propan-2-yl)piperazin-1-yl]-2-(pyridin-3-yl)-4H-chromen-4-one] | 3 to 30 | ≤ 1.2 | 148 to 150 | – |
| CN1CCCN(c2ccc3oc(-c4cccnc4)cc(=O)c3c2)CC1 [Cpd 5, 6-(4-methyl-1,4-diazepan-1-yl)-2-(pyridin-3-yl)-4H-chromen-4-one] | 3 to 30 | 1.2 to 1.35 | 136 to 138 | – |
| O=c1cc(-c2cccnc2)oc2ccc(N3CCCNCC3)cc12 [Cpd 6, 6-(1,4-diazepan-1-yl)-2-(pyridin-3-yl)-4H-chromen-4-one] | 3 to 30 | ≤ 1.2 | 162 to 164 | – |
| O=c1cc(-c2ccccn2)oc2ccc(N3CCNCC3)cc12 [Cpd 7, 6-(piperazin-1-yl)-2-(pyridin-2-yl)-4H-chromen-4-one] | 0.3 to 1 | 1.5 to 1.65 | 170 to 172 | 3 to 10 |
| O=c1cc(-c2cn3ccccc3n2)oc2ccc(N3CCNCC3)cc12 [Cpd 8, 2-(imidazo[1,2-a]pyridin-2-yl)-6-(piperazin-1-yl)-4H-chromen-4-one] | 0.3 to 1 | 1.5 to 1.65 | 207 to 211 | 3 to 10 |
| C[C@@H]1CN(c2ccc3oc(-c4cccnc4)cc(=O)c3c2)C[C@H](C)N1 [Cpd 9, 6-[(3R,5S)-3,5-dimethylpiperazin-1-yl]-2-(pyridin-3-yl)-4H-chromen-4-one] | 1 to 3 | 1.5 to 1.65 | 148 to 150 | 3 to 10 |
| CC1(C)CN(c2ccc3oc(-c4cccnc4)cc(=O)c3c2)CCN1 [Cpd 10, 6-(3,3-dimethylpiperazin-1-yl)-2-(pyridin-3-yl)-4H-chromen-4-one] | 1 to 3 | 1.35 to 1.5 | 140 to 142 | – |
| C[C@@H]1CN(c2ccc3oc(-c4cccnc4)cc(=O)c3c2)CCN1 [Cpd 11, 6-[(3R)-3-methylpiperazin-1-yl]-2-(pyridin-3-yl)-4H-chromen-4-one] | 0.3 to 1 | 1.35 to 1.5 | 148 to 150 | 3 to 10 |
| CN1CCN(c2ccc3oc(-c4ccccn4)cc(=O)c3c2)CC1 [Cpd 12, 6-(4-methylpiperazin-1-yl)-2-(pyridin-2-yl)-4H-chromen-4-one] | 3 to 30 | ≤ 1.2 | 150 to 152 | – |
| C[C@@H]1CN(c2ccc3oc(-c4ccccn4)cc(=O)c3c2)C[C@H](C)N1 [Cpd 13, 6-[(3R,5S)-3,5-dimethylpiperazin-1-yl]-2-(pyridin-2-yl)-4H-chromen-4-one] | 1 to 3 | 1.35 to 1.5 | 166 to 168 | – |
| O=c1cc(-c2ccccn2)oc2ccc(N3CCCNCC3)cc12 [Cpd 14, 6-(1,4-diazepan-1-yl)-2-(pyridin-2-yl)-4H-chromen-4-one] | 3 to 30 | ≤ 1.2 | 170 to 172 | – |
| CCOc1ccc(-c2cc(=O)c3cc(N4C[C@@H](C)N[C@@H](C)C4)ccc3o2)cc1 [Cpd 43, 6-[(3R,5S)-3,5-dimethylpiperazin-1-yl]-2-(4-ethoxyphenyl)-4H-chromen-4-one] | 1 to 3 | ≤ 1.2 | – | – |
| Cc1cn2cc(-c3cc(=O)c4cc(N5CCNCC5)ccc4o3)nc2cn1 [Cpd 72, 2-(6-methylimidazo[1,2-a]pyrazin-2-yl)-6-(piperazin-1-yl)-4H-chromen-4-one] | ≤ 0.1 | > 1.65 | – | ≤ 0.3 |

— patent US9914722B2, “Compounds for treating spinal muscular atrophy” (PTC Therapeutics Inc., priority 2012, dated 2018)
